The assay deals with HeLa. Put plainly: Growth inhibition of human HeLa S3 cells at 10 ug/ml after 72 hrs by crystal violet assay. Format: functional, cell-based.

The source made the active and inactive calls. The calls are words filed in the database; no cut-off is given here.

As to `CCCCCCCCCC/C=C\C/C=C\CC/C=C(\C)C=O`, the result was Active.

(Values after ChEMBL document CHEMBL1155680, “A new bioactive triene aldehyde from the marine sponge Leucetta microraphis” (J Nat Prod, 2000).)
